For three molecules, EC50 results are on record in paper PMC7083148, “Identification of a General Odorant Receptor for Repellents in the Asian Corn Borer Ostrinia furnacalis” (Frontiers in Physiology, 2020).

pEC50: −log10 of the molar value.

The assay concerns the target T1, OfurOR27 (Ostrinia furnacalis, UniProt A0A0E4B5I0).
T1 construct: gene OR27; full-length ORF (402 amino acids); with OfurOrco (OfurOR2)
T1 sequence (A0A0E4B5I0 1-401): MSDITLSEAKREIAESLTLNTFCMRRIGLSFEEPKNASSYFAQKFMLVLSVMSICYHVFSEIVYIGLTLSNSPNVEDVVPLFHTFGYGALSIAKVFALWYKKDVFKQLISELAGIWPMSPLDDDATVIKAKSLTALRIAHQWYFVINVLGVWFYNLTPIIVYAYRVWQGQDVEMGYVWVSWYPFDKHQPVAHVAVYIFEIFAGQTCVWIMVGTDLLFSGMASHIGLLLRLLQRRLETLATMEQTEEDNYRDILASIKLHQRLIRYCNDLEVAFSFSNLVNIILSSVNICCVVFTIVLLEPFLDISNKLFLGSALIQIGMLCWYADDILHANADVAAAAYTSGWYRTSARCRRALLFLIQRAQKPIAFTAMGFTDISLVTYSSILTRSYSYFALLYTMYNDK
T1 sequence (A0A0E4B591 1-474 partner): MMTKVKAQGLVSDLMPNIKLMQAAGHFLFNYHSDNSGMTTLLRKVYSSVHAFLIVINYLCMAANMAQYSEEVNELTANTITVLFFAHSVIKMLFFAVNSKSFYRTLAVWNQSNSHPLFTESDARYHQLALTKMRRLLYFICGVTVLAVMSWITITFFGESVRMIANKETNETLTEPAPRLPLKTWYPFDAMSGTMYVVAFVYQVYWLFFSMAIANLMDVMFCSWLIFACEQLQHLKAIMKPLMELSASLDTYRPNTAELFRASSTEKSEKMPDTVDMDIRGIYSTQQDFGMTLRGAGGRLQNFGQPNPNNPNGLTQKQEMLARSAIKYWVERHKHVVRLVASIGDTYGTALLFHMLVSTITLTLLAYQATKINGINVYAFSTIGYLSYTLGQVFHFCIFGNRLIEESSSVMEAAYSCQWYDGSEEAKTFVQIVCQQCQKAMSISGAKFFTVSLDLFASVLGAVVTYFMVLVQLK
Put plainly: two-electrode voltage clamp in Xenopus oocytes co-expressing OfurOR27/OfurOrco, dose-response. Type of assay: cell-based. A general note: Two-electrode voltage clamp is typically applied to oocytes expressing channels or transporters.
The pEC50 is −log10 of the EC50, conventionally taken in molar units. In turn, `CCCCCCCCO` [1-octanol] showed a pEC50 of 4.85.

In turn, `CCCCCCCCC=O` [nonanal] showed a pEC50 of 6.43. The value for `CCCCCCCC=O` [octanal] was 5.93.
